In publication PMC3579935, “High-Throughput Screening for Growth Inhibitors Using a Yeast Model of Familial Paraganglioma” (PLoS ONE, 2013):
Where two headings read alike, the source gives them in different places.

Target: T1, yeast alcohol dehydrogenase (Saccharomyces cerevisiae, UniProt P00330)
T1 construct: gene ADH1
T1 sequence (P00330 2-348): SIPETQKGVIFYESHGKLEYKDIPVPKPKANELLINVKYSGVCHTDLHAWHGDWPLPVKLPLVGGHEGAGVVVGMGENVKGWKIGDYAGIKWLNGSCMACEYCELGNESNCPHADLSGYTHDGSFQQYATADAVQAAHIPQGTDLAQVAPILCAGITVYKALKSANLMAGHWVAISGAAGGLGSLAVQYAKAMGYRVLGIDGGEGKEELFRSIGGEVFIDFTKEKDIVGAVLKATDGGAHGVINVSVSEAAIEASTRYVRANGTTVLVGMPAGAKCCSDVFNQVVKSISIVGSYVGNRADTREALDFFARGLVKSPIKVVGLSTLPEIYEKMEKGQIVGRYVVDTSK
Test: NADH absorbance ([…] nm) enzyme assay of acetaldehyde reduction, 8-point dose response
Type: biochemical

For `CC(=O)c1ccc(O)c2c1C1C=CCC1C(c1ccc(Cl)cc1)N2` (stereo not shown) [compound 7172827, 7172827], the IC50 (read-out: IC50 yADH ^c) was 25.6 µM.

Molecule `COc1ccc(/C=C/[N+](=O)[O-])cc1Br` [compound 7241889, 7241889] has an IC50 of 1.3 µM.

Work on `COc1cc(C)c(/C=C/[N+](=O)[O-])cc1C(C)C` [compound 7279172, 7279172] yielded an IC50 of 12.7 µM.

Molecule `C#CCOc1c(Cl)cc(/C=C/[N+](=O)[O-])cc1OC` [compound 7312219, 7312219] has an IC50 of 3.8 µM.
